Patent US20060142349A1, “Methods of modulating the activities of alpha-7 nicotinic acetylcholine receptor” (Pfizer Inc, priority 2004, published 2006)
Entries after “also recorded” stand apart in the source; their conditions may differ. Read-outs that look alike come from different tables or passages of the source.

Legend:
[1] = target: T1, α7 nicotinic acetylcholine receptor (Rattus norvegicus, UniProt Q05941); test: Resensitization of desensitized α7 nicotinic acetylcholine receptor, whole cell patch clamp; type: cell-based
T1 construct: Currents were recorded from individual neurons using the whole; endogenous in cells; host or cells: primary hippocampal neurons from postnatal day 3 Sprague-Dawley rats, cultured 1-2 weeks

[2] = target: T1, α7 nicotinic acetylcholine receptor; test: Inhibition of desensitization of α7 nicotinic acetylcholine receptor by acetylcholine, whole cell patch clamp; type: cell-based; conditions: rat hippocampal neurons, continuous exposure to compound, acetylcholine 1 mM applied for 1 second once every minute

T1 sequence (Q05941 23-502): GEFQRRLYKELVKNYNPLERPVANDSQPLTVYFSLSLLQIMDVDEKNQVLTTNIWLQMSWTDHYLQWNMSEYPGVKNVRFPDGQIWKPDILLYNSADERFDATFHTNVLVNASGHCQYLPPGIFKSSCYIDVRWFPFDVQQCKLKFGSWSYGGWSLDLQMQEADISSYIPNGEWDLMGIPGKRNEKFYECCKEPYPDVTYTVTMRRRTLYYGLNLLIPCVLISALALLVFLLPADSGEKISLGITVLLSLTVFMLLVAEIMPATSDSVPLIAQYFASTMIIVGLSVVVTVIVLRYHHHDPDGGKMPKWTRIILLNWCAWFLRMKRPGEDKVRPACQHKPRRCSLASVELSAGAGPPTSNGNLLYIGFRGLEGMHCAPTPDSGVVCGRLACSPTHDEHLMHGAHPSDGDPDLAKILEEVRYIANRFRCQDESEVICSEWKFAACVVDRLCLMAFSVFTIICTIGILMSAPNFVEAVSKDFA

Oc1ccc2[nH]ccc2c1 [5-hydroxyindole]
resensitization of the desensitized α7 nicotinic acetylcholine receptor (inward current evoked in the continued presence of agonist) ([1]; rat hippocampal neurons, applied after 60 seconds of continuous exposure to agonist Compound 1 (3 μM), in its continued presence): does not resensitize; also recorded: did not resensitize; also recorded: no significant effect
inhibition of desensitization (desensitization kinetics of acetylcholine-induced ion currents) [2]: does not alter the rate of receptor desensitization; also recorded: had no such effect; also recorded: did not affect the desensitization kinetics

Cl.O=C(N[C@H]1CN2CCC1CC2)c1ccc(Cl)cc1 [Compound 1, N-[(3R)-1-azabicyclo[2.2.2]oct-3-yl]-4-chlorobenzamide hydrochloride]
agonist-evoked inward current and receptor desensitization ([1]; rat hippocampal neurons, agonist applied continuously for 3 minutes, hydrochloride): desensitization; also recorded: initial inward current that rapidly declined back to baseline

COc1cc(OC)c(NC(=O)Nc2cc(C)on2)cc1Cl [Compound 2, N-(5-chloro-2,4-dimethoxyphenyl)-N′-(5-methylisoxazol-3-yl)urea]
resensitization of the desensitized α7 nicotinic acetylcholine receptor (inward current evoked in the continued presence of agonist) [1]: resensitizes; also recorded: large persistent inward current that was readily reversed upon washout
inhibition of desensitization (desensitization kinetics of acetylcholine-induced ion currents) [2]: inhibition
inhibition of desensitization (desensitization kinetics of acetylcholine-induced ion currents) ([2]; listed as compound 2): significant inhibition or slowing of receptor desensitization

CN1CCCC1c1cccnc1 (stereo not shown) [nicotine]
agonist-evoked inward current and receptor desensitization ([1]; nicotine as agonist, expected result ("should result")): initial inward current that rapidly declines back to baseline
